# Laboratory results reported in publication PMC11952493 (bioRxiv, 2025).
# Where no end group is shown, it is not given here.
# Molecular target: T1, Recombinant Human FAPα (Homo sapiens, UniProt Q12884)
# T1 sequence (Q12884 1-760): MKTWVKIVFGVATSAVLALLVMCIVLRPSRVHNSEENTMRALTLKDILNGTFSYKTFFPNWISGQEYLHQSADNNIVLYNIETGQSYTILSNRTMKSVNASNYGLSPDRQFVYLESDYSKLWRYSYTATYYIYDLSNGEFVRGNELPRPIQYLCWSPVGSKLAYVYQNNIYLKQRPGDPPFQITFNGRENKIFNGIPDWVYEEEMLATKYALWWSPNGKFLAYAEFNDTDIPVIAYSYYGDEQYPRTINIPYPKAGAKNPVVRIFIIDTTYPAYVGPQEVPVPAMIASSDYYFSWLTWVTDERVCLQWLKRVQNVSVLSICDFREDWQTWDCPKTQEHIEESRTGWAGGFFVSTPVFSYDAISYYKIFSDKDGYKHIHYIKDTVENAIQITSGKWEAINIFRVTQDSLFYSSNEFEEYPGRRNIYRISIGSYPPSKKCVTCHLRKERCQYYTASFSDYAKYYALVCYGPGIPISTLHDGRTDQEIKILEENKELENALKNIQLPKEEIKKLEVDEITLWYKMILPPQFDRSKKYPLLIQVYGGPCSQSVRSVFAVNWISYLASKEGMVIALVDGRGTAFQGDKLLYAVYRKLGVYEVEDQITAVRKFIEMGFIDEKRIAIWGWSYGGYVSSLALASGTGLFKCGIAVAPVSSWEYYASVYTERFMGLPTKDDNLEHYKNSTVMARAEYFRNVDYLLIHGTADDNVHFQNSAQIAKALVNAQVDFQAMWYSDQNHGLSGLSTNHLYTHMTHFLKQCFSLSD
# Test: Fluorogenic substrate cleavage assay with FAPα
# Type: biochemical
# Settings: 200 μM substrate, 37°C; 10 nM FAPα, 2 nM DPP4, 6 nM DPP9, 3-6 nM PREP
row,"selectivity for FAPα over DPP4, DPP9 and PREP (in words)",Sequence
1,highest specificity,AACSFRINSLCG (also: sidechain bridge or staple (positions not given here)) [FAP-24]
2,highest specificity,AACVSFQNLDCG (also: sidechain bridge or staple (positions not given here)) [FAP-33]
